Results taken from the supplement of paper PMC10307832.

Key:
Test in all cases: relative viability (nuclei count vs DMSO), 5 days (fraction); higher = more cells survive
[1] = compound: CC[C@H](Nc1ncnc2[nH]cnc12)c1nc2cccc(F)c2c(=O)n1-c1ccccc1 [Idelalisib] + Cc1cc(Nc2cc(N3CCN(C)CC3)nc(Sc3ccc(NC(=O)C4CC4)cc3)n2)n[nH]1 [Tozasertib] (partner 0.1 µM)
Outline: (§1)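 A single step with final 0.05% Triton X-100, 1% formaldehyde and 1 ug/ml Hoechst fixed the cells and stained nuclei 5 days after treatment. Lung cancer cell lines in 1536-well plates had been treated by pin tool the day after seeding with one drug alone or a fixed anchor-drug dose plus five library-drug doses (not always all listed) in √10 steps, and nuclei were counted on 4× images. Relative viability is the ratio of nuclei in treated wells to nuclei in vehicle wells, taken as the median of duplicate plates.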

[2] = compound: CC[C@H](Nc1ncnc2[nH]cnc12)c1nc2cccc(F)c2c(=O)n1-c1ccccc1 [Idelalisib] + CC(=O)Nc1cccc(-n2c(=O)n(C3CC3)c(=O)c3c(Nc4ccc(I)cc4F)n(C)c(=O)c(C)c32)c1 [Trametinib] (partner 0.02 µM)
Outline: as §1

[3] = compound: Nc1nc2[nH]cc(CCc3ccc(C(=O)N[C@@H](CCC(=O)O)C(=O)O)cc3)c2c(=O)[nH]1 [Pemetrexed] + O=C(CCCCCCC(=O)Nc1ccccc1)NO [Vorinostat] (partner 1 µM)
Outline: as §1

[4] = compound: CC[C@H](Nc1ncnc2[nH]cnc12)c1nc2cccc(F)c2c(=O)n1-c1ccccc1 [Idelalisib] + Cc1nc(NC(=O)N2CCC[C@H]2C(N)=O)sc1-c1ccnc(C(C)(C)C(F)(F)F)c1 [Alpelisib] (partner 2 µM)
Outline: as §1

Cell Line | relative viability ([1]; first compound 0.04 µM) | relative viability ([1]; first compound 0.1265 µM) | relative viability ([1]; first compound 0.4 µM) | relative viability ([1]; first compound 1.265 µM) | relative viability ([1]; first compound 4 µM) | relative viability ([2]; first compound 0.04 µM) | relative viability ([2]; first compound 0.1265 µM) | relative viability ([2]; first compound 0.4 µM) | relative viability ([2]; first compound 1.265 µM) | relative viability ([2]; first compound 4 µM) | relative viability ([3]; first compound 0.002 µM) | relative viability ([3]; first compound 0.006325 µM) | relative viability ([3]; first compound 0.02 µM) | relative viability ([3]; first compound 0.06325 µM) | relative viability ([3]; first compound 0.2 µM) | relative viability ([4]; first compound 0.04 µM) | relative viability ([4]; first compound 0.1265 µM) | relative viability ([4]; first compound 0.4 µM) | relative viability ([4]; first compound 1.265 µM) | relative viability ([4]; first compound 4 µM)
NCI-H1755 | 0.541 | 0.616 | 0.483 | 0.488 | 0.489 | 0.764 | 0.773 | 0.745 | 0.674 | 0.732 | 0.716 | 0.813 | 0.776 | 0.751 | 0.624 | 0.611 | 0.9 | 0.827 | 0.784 | 0.735
LOU-NH91 | 0.749 | 0.641 | 0.651 | 0.557 | 0.708 | 0.85 | 0.803 | 0.718 | 0.751 | 0.781 | 0.878 | 0.906 | 1.02 | 0.591 | 0.395 | 0.762 | 0.705 | 0.634 | 0.59 | 0.641
EMC-BAC-2 | 0.313 | 0.277 | 0.296 | 0.276 | 0.281 | 0.953 | 0.875 | 0.795 | 0.863 | 0.859 | 0.397 | 0.734 | 0.539 | 0.402 | 0.256 | 0.689 | 0.736 | 0.674 | 0.707 | 0.684
NCI-H2023 | 0.355 | 0.284 | 0.363 | 0.321 | 0.253 | 0.487 | 0.533 | 0.49 | 0.537 | 0.37 | 0.306 | 0.595 | 0.676 | 0.372 | 0.15 | 0.693 | 0.564 | 0.524 | 0.494 | 0.313
EKVX | 0.411 | 0.419 | 0.336 | 0.342 | 0.317 | 0.332 | 0.406 | 0.352 | 0.334 | 0.278 | 0.683 | 0.654 | 0.724 | 0.793 | 0.557 | 0.835 | 0.896 | 0.728 | 0.625 | 0.53
NCI-H2085 | 0.915 | 0.779 | 0.8 | 0.641 | 0.692 | 0.569 | 0.299 | 0.382 | 0.369 | 0.327 | 0.763 | 0.775 | 0.897 | 0.817 | 0.806 | 1.01 | 0.955 | 0.811 | 0.874 | 0.514
NCI-H3122 | 0.377 | 0.372 | 0.41 | 0.4 | 0.399 | 0.224 | 0.223 | 0.188 | 0.235 | 0.225 | 1.12 | 0.893 | 0.96 | 0.755 | 0.454 | 0.709 | 0.782 | 0.685 | 0.777 | 0.631
HCC-827 | 0.457 | 0.447 | 0.389 | 0.453 | 0.398 | 0.578 | 0.517 | 0.473 | 0.476 | 0.424 | 0.764 | 0.912 | 0.959 | 0.515 | 0.426 | 0.977 | 0.968 | 0.92 | 0.894 | 0.506
HARA | 0.0983 | 0.113 | 0.121 | 0.0975 | 0.101 | 0.78 | 0.773 |  | 0.593 | 0.671 | 0.517 | 0.611 | 0.512 | 0.595 | 0.231 | 1.03 | 0.843 | 0.855 | 0.754 | 0.751
NCI-H441 | 0.725 | 0.685 | 0.728 | 0.536 | 0.591 | 0.437 | 0.484 |  | 0.615 | 0.396 | 0.693 | 0.788 | 0.763 | 0.695 | 0.262 | 0.987 | 0.455 |  | 0.839 | 0.611
SK-MES-1 | 0.972 | 1.05 | 0.955 | 0.964 | 0.931 | 0.497 | 0.482 | 0.426 | 0.477 | 0.353 | 1.07 | 0.994 | 1.18 | 1.11 | 0.993 | 0.837 | 0.913 | 0.753 | 0.715 | 0.574
HCC-15 | 0.556 | 0.419 | 0.356 | 0.384 | 0.31 | 0.379 | 0.29 | 0.315 | 0.356 | 0.332 | 0.821 | 0.76 | 0.878 | 0.69 | 0.345 | 1.07 | 0.884 | 0.794 | 0.912 | 0.83
EPLC-272H | 0.212 | 0.227 | 0.242 | 0.212 | 0.222 | 0.311 | 0.291 | 0.254 | 0.257 | 0.216 | 0.519 | 0.398 | 0.544 | 0.308 | 0.288 | 0.617 | 0.9 | 0.767 | 0.74 | 0.669
NCI-H2009 | 0.736 | 0.852 | 0.667 | 0.756 | 0.567 | 0.297 | 0.232 | 0.201 | 0.228 | 0.179 | 0.631 | 0.7 | 0.776 | 0.681 | 0.654 | 1.18 | 1.12 | 1.14 | 1.17 | 1.01
NCI-H661 | 0.414 | 0.358 | 0.391 | 0.358 | 0.408 | 0.585 | 0.579 | 0.535 | 0.618 | 0.502 | 0.761 | 0.72 | 0.821 | 0.8 | 0.745 | 0.708 | 0.642 | 0.637 | 0.718 | 0.813
NCI-H520 | 0.468 | 0.4 | 0.406 | 0.405 | 0.405 | 0.793 | 0.566 | 0.479 | 0.628 | 0.613 | 0.671 | 0.7 | 0.718 | 0.681 | 0.709 | 0.862 | 0.878 | 0.64 | 0.769 | 0.349
NCI-H2405 | 0.841 | 0.864 | 0.671 | 0.762 | 0.672 | 0.672 | 0.656 | 0.423 | 0.622 | 0.515 | 0.929 | 1.2 | 1.07 | 1.02 | 0.96 | 0.811 | 0.642 | 0.537 | 0.683 | 0.544
LCLC-97TM1 | 0.299 | 0.172 | 0.201 | 0.207 | 0.207 | 0.194 | 0.21 | 0.216 | 0.228 | 0.163 | 0.711 | 0.559 | 0.765 | 0.803 | 0.163 | 0.274 | 0.211 |  | 0.284 | 0.168
NCI-H727 | 0.669 | 0.533 | 0.713 | 0.652 | 0.559 | 0.423 | 0.457 | 0.34 | 0.394 | 0.387 | 1.18 | 1.12 | 1.26 | 1.16 | 1.06 | 0.643 | 0.69 | 0.499 | 0.588 | 0.622
NCI-H2228 | 0.292 | 0.216 | 0.223 | 0.271 | 0.239 | 0.49 | 0.684 | 0.429 | 0.583 | 0.381 | 0.807 | 0.493 | 0.749 | 0.413 | 0.296 | 1.07 | 0.739 | 0.774 | 0.672 | 0.631
LK-2 | 0.178 | 0.165 |  | 0.18 | 0.164 | 0.87 | 0.651 | 0.503 | 0.588 | 0.704 | 0.312 | 0.313 | 0.254 | 0.297 | 0.338 | 1.16 | 1.17 |  | 1.09 | 1.11
PC-3 [JPC-3] | 0.966 | 0.913 | 0.853 | 0.901 | 0.715 | 0.721 | 0.69 | 0.724 | 0.607 | 0.496 | 0.628 | 1.15 | 0.837 | 0.922 | 0.782 | 1.11 | 1.02 | 0.981 | 0.963 | 0.855
NCI-H596 | 0.818 | 1.01 | 0.73 | 0.855 | 0.815 | 0.756 | 0.82 | 0.782 | 0.878 | 0.592 | 0.707 | 0.577 | 0.576 | 0.468 | 0.385 | 0.597 | 0.397 | 0.483 | 0.467 | 0.364
NCI-H460 | 0.626 | 0.397 | 0.436 | 0.447 | 0.255 | 0.218 | 0.194 | 0.139 | 0.131 | 0.113 |  | 0.683 | 0.784 | 0.57 | 0.0651 | 0.566 | 0.521 | 0.426 | 0.324 | 0.291
NCI-H647 | 0.313 | 0.394 |  | 0.0094 | 0.109 | 0.431 | 0.485 | 0.423 | 0.354 | 0.239 | 0.387 | 0.479 | 0.594 | 0.458 | 0.171 | 1.27 | 1.17 | 0.845 | 1.12 | 0.68
NCI-H838 | 0.268 | 0.288 | 0.282 | 0.258 | 0.257 | 0.53 | 0.551 | 0.432 | 0.511 | 0.372 | 0.72 | 0.727 | 0.781 | 0.661 | 0.308 | 0.902 | 1.02 | 0.914 | 0.957 | 0.818
PC-14 | 0.638 | 0.603 | 0.557 | 0.6 | 0.553 | 0.648 | 0.757 | 0.695 | 0.723 | 0.509 | 0.656 | 0.636 | 0.775 | 0.226 | 0.123 | 0.992 | 0.882 | 0.874 | 0.983 | 0.9
